pIC50, pKi: −log10 of the molar value.
Assays:
[1] = Ability to inhibit proliferation in human lymphocytes by mixed lymphocyte reaction (MLR); format: functional, cell-based
[2] = target: Dihydroorotate dehydrogenase (quinone), mitochondrial (Homo sapiens, UniProt Q02127)
Chain of Dihydroorotate dehydrogenase (quinone), mitochondrial (Q02127 whole entry): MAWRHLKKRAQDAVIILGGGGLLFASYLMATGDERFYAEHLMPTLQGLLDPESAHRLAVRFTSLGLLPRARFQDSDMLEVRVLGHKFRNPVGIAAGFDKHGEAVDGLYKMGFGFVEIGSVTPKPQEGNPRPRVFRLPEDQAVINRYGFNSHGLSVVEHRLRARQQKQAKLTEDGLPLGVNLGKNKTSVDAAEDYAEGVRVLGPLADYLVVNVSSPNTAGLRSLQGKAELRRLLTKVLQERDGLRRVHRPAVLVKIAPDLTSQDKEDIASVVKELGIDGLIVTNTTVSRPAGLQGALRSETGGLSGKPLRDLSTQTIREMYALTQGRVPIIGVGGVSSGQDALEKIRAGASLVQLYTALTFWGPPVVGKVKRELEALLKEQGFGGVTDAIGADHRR
Description: Inhibition measurement of orotate formation from radiolabeled dihydroorotate, using partially purified DHODase isolated from human liver.

In the case of `COc1c(-c2ccc(-c3ccccc3)cc2)nc2ccc(F)cc2c1C(=O)O`, the pIC50 ([1]; Homo sapiens) was 6.60 and the pKi [2] was 7.89.

For `Cc1c(-c2cccc(-c3ccccc3)c2)nc2ccc(F)cc2c1C(=O)O`, the pIC50 ([1]; Homo sapiens) was < 6.30 and the pKi [2] was < 6.30.

In the case of `Cc1c(-c2ccc(Oc3ccccc3)cc2)nc2ccc(F)cc2c1C(=O)O`, the pIC50 ([1]; Homo sapiens) was 6.30 and the pKi [2] was 7.54.

For `CC(=O)Nc1ccc2nc(-c3ccc(-c4ccccc4)cc3)c(C)c(C(=O)O)c2c1`, the pIC50 ([1]; Homo sapiens) was < 6.30 and the pKi [2] was < 6.30.

For `Cc1c(-c2ccc3ccccc3c2)nc2ccc(F)cc2c1C(=O)O`, the pIC50 ([1]; Homo sapiens) was < 6.30 and the pKi [2] was 6.52.

For `Cc1c(-c2ccc(-n3ccnc3)cc2)nc2ccc(F)cc2c1C(=O)O`, the pIC50 ([1]; Homo sapiens) was < 6.30 and the pKi [2] was < 6.30.

In the case of `Cc1c(-c2ccc(-c3ccccc3)cc2)nc2ccc(F)cc2c1CO`, the pIC50 ([1]; Homo sapiens) was < 6.30 and the pKi [2] was < 6.30.

For `COC(=O)c1ccc2nc(-c3ccc(-c4ccccc4)cc3)c(C)c(C(=O)O)c2c1`, the pIC50 ([1]; Homo sapiens) was < 6.30 and the pKi [2] was < 6.30.

`O=C(O)c1c2c(nc3ccc(F)cc13)-c1ccc(-c3ccccc3)cc1CC2` gave a pIC50 ([1]; Homo sapiens) of 7.85 and a pKi [2] of 7.77.

With `Cc1c(-c2ccc(-c3cccnc3)cc2)nc2ccc(F)cc2c1C(=O)O` the pIC50 ([1]; Homo sapiens) was < 6.30 and the pKi [2] was 6.70.

For `Cc1c(-c2cccc(Oc3ccccc3)c2)nc2ccc(F)cc2c1C(=O)O`, the pIC50 ([1]; Homo sapiens) was < 6.30 and the pKi [2] was 7.20.

With `Cc1c(-c2ccc(-c3ccccc3)cc2)nc2c(Cl)cccc2c1C(=O)O` the pIC50 ([1]; Homo sapiens) was < 6.30 and the pKi [2] was 6.82.

For `O=C(O)c1c(O)c(-c2ccc(-c3ccccc3)cc2)nc2ccc(F)cc12`, the pIC50 ([1]; Homo sapiens) was < 6.30.

For `Cc1c(-c2ccc(-c3ccccc3F)cc2)nc2cccnc2c1C(=O)O`, the pIC50 ([1]; Homo sapiens) was < 6.30 and the pKi [2] was 6.30.

With `Cn1cnc2c(C(=O)O)cc(-c3ccc(-c4ccccc4)cc3)nc21` the pIC50 ([1]; Homo sapiens) was < 6.30 and the pKi [2] was < 6.30.

For `Cc1c(-c2ccc(-c3ccccc3)cc2)nc2ccc(F)cc2c1-n1cnnn1`, the pIC50 ([1]; Homo sapiens) was < 6.30 and the pKi [2] was < 6.30.

`CSc1c(-c2ccc(-c3ccccc3)cc2)nc2ccc(F)cc2c1C(=O)O` gave a pIC50 ([1]; Homo sapiens) of 7.74 and a pKi [2] of 7.89.

`Cc1c(-c2ccc(-c3cccs3)cc2)nc2ccc(F)cc2c1C(=O)O` showed a pIC50 ([1]; Homo sapiens) of 6.46 and a pKi [2] of 7.25.

For `Cc1c(-c2ccc(-c3ccc(Cl)cc3)cc2)nc2ccc(F)cc2c1C(=O)O`, the pIC50 ([1]; Homo sapiens) was < 6.30 and the pKi [2] was 6.85.

With `Cc1c(-c2ccc(-c3ccccc3F)cc2)nc2ccncc2c1C(=O)O` the pIC50 ([1]; Homo sapiens) was < 6.30 and the pKi [2] was 6.38.

In the case of `CSc1ccc2nc(-c3ccc(-c4ccccc4)cc3)c(C)c(C(=O)O)c2c1`, the pIC50 ([1]; Homo sapiens) was < 6.30 and the pKi [2] was 6.57.

In the case of `CCCCCCc1ccc(-c2nc3ccc(F)cc3c(C(=O)O)c2C)cc1`, the pIC50 ([1]; Homo sapiens) was < 6.30 and the pKi [2] was 7.22.

`Cc1c(-c2ccc(-c3ccc(F)cc3)cc2)nc2ccc(F)cc2c1C(=O)O` showed a pIC50 ([1]; Homo sapiens) of 6.59 and a pKi [2] of 6.68.

With `Cc1c(-c2ccc(-c3cccc(F)c3)cc2)nc2ccc(F)cc2c1C(=O)O` the pIC50 ([1]; Homo sapiens) was 7.70 and the pKi [2] was 7.30.

With `Cc1c(-c2cccc3ccccc23)nc2ccc(F)cc2c1C(=O)O` the pIC50 ([1]; Homo sapiens) was < 6.30 and the pKi [2] was < 6.30.

In the case of `Cc1c(-c2ccc(-c3ccccc3)cc2)nc2cc(Cl)ccc2c1C(=O)O`, the pIC50 ([1]; Homo sapiens) was < 6.30 and the pKi [2] was 6.66.

In the case of `Cc1ccc2nc(-c3ccc(-c4ccccc4)cc3)c(C)c(C(=O)O)c2c1`, the pIC50 ([1]; Homo sapiens) was 6.42 and the pKi [2] was 8.00.

For `Cc1c(-c2ccc(-c3ccccc3F)cc2)nc2nc[nH]c2c1C(=O)O`, the pIC50 ([1]; Homo sapiens) was < 6.30 and the pKi [2] was < 6.30.

For `Cc1c(-c2ccccc2)nc2ccc(F)cc2c1C(=O)O`, the pIC50 ([1]; Homo sapiens) was < 6.30 and the pKi [2] was < 6.30.

With `Cc1c(-c2ccc(-c3ccccc3)cc2)nc2ccc(F)cc2c1C(N)=O` the pIC50 ([1]; Homo sapiens) was < 6.30 and the pKi [2] was < 6.30.

`Cc1c(-c2ccc(-c3ccccc3)cc2)nc2ccccc2c1C(=O)O` showed a pIC50 [1] of 6.74.

With `Cc1c(-c2ccc(-c3ccccc3)cc2)nc2ccc(F)cc2c1O` the pIC50 ([1]; Homo sapiens) was < 6.30 and the pKi [2] was < 6.30.

Compound `Cc1ccc(-c2ccc(-c3nc4ccc(F)cc4c(C(=O)O)c3C)cc2)cc1` has a pIC50 ([1]; Homo sapiens) of 6.82 and a pKi [2] of 7.62.

In the case of `Cc1c(-c2ccc(-c3ccccc3F)cc2)nc2cnccc2c1C(=O)O`, the pIC50 ([1]; Homo sapiens) was 6.54 and the pKi [2] was 7.32.

In the case of `Cc1c(-c2ccc(-c3ccccc3)s2)nc2ccc(F)cc2c1C(=O)O`, the pIC50 ([1]; Homo sapiens) was < 6.30 and the pKi [2] was 6.41.

`Cc1c(-c2ccc(C(C)(C)C)cc2)nc2ccc(F)cc2c1C(=O)O` showed a pIC50 ([1]; Homo sapiens) of 6.40 and a pKi [2] of 7.40.

For `Cc1c(-c2ccc(-c3ccc(Br)cc3)cc2)nc2ccc(F)cc2c1C(=O)O`, the pIC50 ([1]; Homo sapiens) was < 6.30 and the pKi [2] was 7.42.

In the case of `CC(=O)OCc1c(C)c(-c2ccc(-c3ccccc3)cc2)nc2ccc(F)cc12`, the pIC50 ([1]; Homo sapiens) was < 6.30 and the pKi [2] was < 6.30.

`Cc1c(-c2ccc(C3CCCCC3)cc2)nc2ccc(F)cc2c1C(=O)O` showed a pIC50 ([1]; Homo sapiens) of 7.60 and a pKi [2] of 7.55.

In the case of `Cc1c(-c2ccc(-c3ccccc3F)cc2)nc2ncccc2c1C(=O)O`, the pIC50 ([1]; Homo sapiens) was < 6.30 and the pKi [2] was 6.68.

In the case of `O=C(O)c1cc(-c2ccc(-c3ccccc3)cc2)nc2ocnc12`, the pIC50 ([1]; Homo sapiens) was < 6.30 and the pKi [2] was < 6.30.

In the case of `Cc1c(CCCCc2ccccc2)nc2ccc(F)cc2c1C(=O)O`, the pIC50 ([1]; Homo sapiens) was < 6.30 and the pKi [2] was < 6.30.

For `CCc1c(-c2ccc(-c3ccccc3)cc2)nc2ccc(F)cc2c1C(=O)O`, the pIC50 ([1]; Homo sapiens) was 6.68 and the pKi [2] was 7.52.

Compound `O=C(O)c1cc(-c2ccc(-c3ccccc3)cc2)nc2ccc(F)cc12` has a pIC50 ([1]; Homo sapiens) of 6.82 and a pKi [2] of 8.00.

For `Cc1c(-c2ccc(-c3ccccc3)cc2)nc2ccc(Cl)cc2c1C(=O)O`, the pIC50 ([1]; Homo sapiens) was 7.46 and the pKi [2] was 7.70.

Compound `Cc1c(-c2ccc(-c3ccccc3)cc2)nc2ccc(C(F)(F)F)cc2c1C(=O)O` has a pIC50 ([1]; Homo sapiens) of 8.15 and a pKi [2] of 8.08.

For `Cc1c(-c2ccc(-c3ccc(C(F)(F)F)cc3)cc2)nc2ccc(F)cc2c1C(=O)O`, the pIC50 ([1]; Homo sapiens) was < 6.30 and the pKi [2] was 6.64.

`Cc1c(-c2ccc(-c3ccccc3F)cc2)nc2ccc(F)cc2c1C(=O)O` [BREQUINAR] showed a pIC50 [1] of 7.82.

For `Cc1c(-c2ccc(-c3ccccc3)cc2)nc2cccc(Cl)c2c1C(=O)O`, the pIC50 ([1]; Homo sapiens) was 6.82 and the pKi [2] was 7.60.

With `Cc1c(-c2ccc(-c3ccccc3)cc2)nc2ccc(O)cc2c1C(=O)O` the pIC50 ([1]; Homo sapiens) was < 6.30 and the pKi [2] was < 6.30.

Compound `Cc1c(-c2ccc(-c3ccc(O)cc3F)cc2)nc2ccc(F)cc2c1C(=O)O` has a pIC50 ([1]; Homo sapiens) of 6.52 and a pKi [2] of 7.96.

For `COC(=O)c1c(C)c(-c2ccc(-c3ccccc3)cc2)nc2ccc(F)cc12`, the pIC50 ([1]; Homo sapiens) was < 6.30 and the pKi [2] was 6.40.

With `O=C(O)c1cc(-c2ccc(-c3ccccc3)cc2)nc2sccc12` the pIC50 ([1]; Homo sapiens) was < 6.30 and the pKi [2] was 6.68.
